Blank lines part the entries; values can stand above or below the molecule they belong to.
Target: T1, β-glucanase
T1 construct: gene eglA; native secreted enzyme purified from culture supernatant (ammonium sulfate, DEAE-Cellulose, Sephadex G200); 56 kDa on SDS-PAGE; gene not identified; assayed as CMC hydrolysis
Assay: residual CMC hydrolysis, DNS reducing sugar
Assay type: biochemical, Aspergillus niger
Settings: free enzyme, standard assay 0.5% CMC stock, citrate pH 5.0, 40 °C

Structure (SMILES): [Hg+][c]1ccccc1 [phenylmercuric acetate]
- IC50 (covalent, sulfhydryl reagent): 5.47 mM

- IC50 (covalent, tryptophanyl reagent): 6.44 mM
Structure (SMILES): O=C1CCC(=O)N1Br [N-bromosuccinimide]

- IC50 (covalent, tyrosyl reagent): 8.87 mM
Structure (SMILES): CC(=O)n1ccnc1 [N-Acetyl imidazole]

Structure (SMILES): CC(O)C(C)O (stereo not shown) [2.3-butanediol]
- IC50 (arginyl reagent, printed as 2,3-butanediol, probably 2,3-butanedione meant): 4.65 mM
